This is an account of results in patent publication US8906904B2, “Alkoxy pyrazoles as soluble guanylate cyclase activators” (Boehringer Ingelheim International GmbH, priority 2012, dated 2014).

In brackets after ≈: the same amount, converted by molar mass.

Series [1] in a line: Assessment of solubility (McIlvaine buffers, 24 h shake, UPLC-UV). The following applies: kinetic from dmso stock. Type of series: physicochemical. The method in brief: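 Compounds from 10 mM DMSO stocks were shaken for 24 h at room temperature in McIlvaine buffers at pH 2.2, 4.5 and 6.8 (2.5% v/v DMSO final), then filtered. Filtrates were quantified by UPLC-UV at 254 nm against a 50:50 acetonitrile/water reference assumed fully dissolved, as a single determination.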

A short description of series [2]: human liver microsome (HLM) metabolic stability assay. Type of series: in vitro ADME. Particulars: human liver microsomes; % hepatic blood flow calculated from t1/2. An outline of the steps: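 Compounds at 1 uM incubated with human liver microsomes plus NADPH at 37° C., sampled at 0, 5, 15, 30 and 60 min into cold acetonitrile and quantified by LC/MS/MS. t½ from the slope of ln % remaining vs time; CLint, CLh and % Qh derived from it (n=1).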

For the compound `CCOc1c(C(=O)O)cnn1-c1cccc(-c2cccc(C)c2OCc2ccc3c(c2C)CCN(C[C@H]2COCCO2)CC3)n1` [Compound 212], the solubility (usually the concentration that dissolves in the medium under given conditions) at 24 h is 92 µg/mL (≈ 150 µM) in series [1] (pH 2.2, aqueous buffer); 79 µg/mL (≈ 129 µM) in series [1] (pH 4.5, aqueous buffer); 75 µg/mL (≈ 122 µM) in series [1] (pH 6.8, aqueous buffer). The “HLM (% Qh)” value in series [2] is given as less than 24 % Qh.
The matching figures for `COc1c(C(=O)O)cnn1-c1cccc(-c2cccc(C)c2OCc2ccc3c(c2C)CCN(C[C@H]2CCCO2)CC3)n1` [Compound 222]: 85 µg/mL (≈ 146 µM), 71 µg/mL (≈ 122 µM), 73 µg/mL (≈ 125 µM) and less than 24 % Qh.
The like results for `CCOc1c(C(=O)O)cnn1-c1cccc(-c2cccc(C)c2OCc2ccc3c(c2C)CCN(C2CCOCC2)C3=O)n1` [Compound 194] were, in that order, 0.68 µg/mL (≈ 1.14 µM), 2.5 µg/mL (≈ 4.19 µM), 78 µg/mL (≈ 131 µM) and less than 24 % Qh.
Take `COc1c(C(=O)O)cnn1-c1cccc(-c2cccc(C)c2OCc2cc(F)c3c(c2)CCN(C[C@H]2CCCCO2)C3)n1` [Compound 229]: the solubility at 24 h in series [1] (pH 2.2, aqueous buffer) came to 100 µg/mL (≈ 170 µM); in series [1] (pH 4.5, aqueous buffer), 81 µg/mL (≈ 138 µM); in series [1] (pH 6.8, aqueous buffer), 73 µg/mL (≈ 124 µM). Also, the “HLM (% Qh)” value in series [2] was 34 % Qh.
The like results for `COCC(C)N1CCc2cc(COc3c(C)cccc3-c3cccc(-n4ncc(C(=O)O)c4OC)n3)cc(C)c2C1` (stereo not shown) [Compound 244] were, in that order, 120 µg/mL (≈ 216 µM), 99 µg/mL (≈ 178 µM), 98 µg/mL (≈ 176 µM) and less than 24 % Qh.
The like results for `COc1c(C(=O)O)cnn1-c1cccc(-c2cccc(C)c2OCc2cc(F)c3c(c2)CCN(C2CCOCC2)C3)n1` [Compound 201] were, in that order, 87 µg/mL (≈ 152 µM), 68 µg/mL (≈ 119 µM), 66 µg/mL (≈ 115 µM) and less than 24 % Qh.
The matching figures for `CCOc1c(C(=O)O)cnn1-c1cccc(-c2cccc(C)c2OCc2cc(C)c3c(c2)CCN([C@H]2CCCOC2)C3)n1` [Compound 197]: 110 µg/mL (≈ 189 µM), 83 µg/mL (≈ 142 µM), 79 µg/mL (≈ 136 µM) and less than 24 % Qh.
For `COc1c(C(=O)O)cnn1-c1cccc(-c2cccc(C)c2OCc2cc(C)c3c(c2)CCN(C2CCOC2)C3)n1` (stereo not shown) [Compound 242], the solubility at 24 h was 110 µg/mL (≈ 198 µM) in series [1] (pH 2.2, aqueous buffer); 79 µg/mL (≈ 142 µM) in series [1] (pH 4.5, aqueous buffer); 78 µg/mL (≈ 141 µM) in series [1] (pH 6.8, aqueous buffer). In series [2], the “HLM (% Qh)” value is on record as less than 24 % Qh.
Take `CCOc1c(C(=O)O)cnn1-c1cccc(-c2cccc(C)c2OCc2ccc3c(c2C)CCN(C(C)COC)CC3)n1` (stereo not shown) [Compound 196]: the solubility at 24 h worked out at 89 µg/mL (≈ 152 µM) in series [1] (pH 2.2, aqueous buffer); 77 µg/mL (≈ 132 µM) in series [1] (pH 4.5, aqueous buffer); 85 µg/mL (≈ 145 µM) in series [1] (pH 6.8, aqueous buffer). Further, the “HLM (% Qh)” value in series [2] is less than 24 % Qh.
The matching figures for `COc1c(C(=O)O)cnn1-c1cccc(-c2cccc(C)c2OCc2ccc3c(c2)CCN(C2CCOC2)C3)n1` (stereo not shown) [Compound 15]: 110 µg/mL (≈ 203 µM), 88 µg/mL (≈ 163 µM), 90 µg/mL (≈ 166 µM) and less than 24 % Qh.
The like results for `COc1c(C(=O)O)cnn1-c1cccc(-c2cccc(C)c2OCc2ccc3c(c2F)CCN([C@H]2CCOC2)C3)n1` [Compound 251] were, in that order, 100 µg/mL (≈ 179 µM), 72 µg/mL (≈ 129 µM), 77 µg/mL (≈ 138 µM) and less than 24 % Qh.
The matching figures for `COc1c(C(=O)O)cnn1-c1cccc(-c2cccc(C)c2OCc2ccc3c(c2Cl)CCN(C2CCOCC2)C3)n1` [Compound 18]: 110 µg/mL (≈ 187 µM), 86 µg/mL (≈ 146 µM), 90 µg/mL (≈ 153 µM) and less than 24 % Qh.
`CCOc1c(C(=O)O)cnn1-c1cccc(-c2cccc(C)c2OCc2ccc3c(c2C)CCN(C[C@H]2CCO2)CC3)n1` [Compound 226]: the solubility at 24 h in series [1] (pH 2.2, aqueous buffer) was found to be 98 µg/mL (≈ 168 µM); in series [1] (pH 4.5, aqueous buffer), 83 µg/mL (≈ 142 µM); in series [1] (pH 6.8, aqueous buffer), 86 µg/mL (≈ 148 µM). In addition, the “HLM (% Qh)” value in series [2] was 52 % Qh.
Turning to `CCOc1c(C(=O)O)cnn1-c1cccc(-c2cccc(C)c2OCc2ccc3c(c2C)CCN([C@H]2CCOC2)CC3)n1` [Compound 225], the solubility at 24 h in series [1] (pH 2.2, aqueous buffer) was 95 µg/mL (≈ 163 µM); in series [1] (pH 4.5, aqueous buffer) it was 78 µg/mL (≈ 134 µM); in series [1] (pH 6.8, aqueous buffer) it was 81 µg/mL (≈ 139 µM). Besides, the “HLM (% Qh)” value in series [2] is given as less than 24 % Qh.
The like results for `CCOc1c(C(=O)O)cnn1-c1cccc(-c2cccc(C)c2OCc2ccc3c(c2C)CCN(C[C@@H]2CCCCO2)CC3)n1` [Compound 215] were, in that order, 86 µg/mL (≈ 141 µM), 70 µg/mL (≈ 115 µM), 76 µg/mL (≈ 124 µM) and less than 24 % Qh.
The matching figures for `CCOc1c(C(=O)O)cnn1-c1cccc(-c2cccc(C)c2OCc2ccc3c(c2C)CCN(C[C@@H]2COCCO2)CC3)n1` [Compound 211]: 95 µg/mL (≈ 155 µM), 82 µg/mL (≈ 134 µM), 78 µg/mL (≈ 127 µM) and less than 24 % Qh.
The like results for `COc1c(C(=O)O)cnn1-c1cccc(-c2cccc(C)c2OCc2ccc3c(c2C)CCN(C[C@@H]2COCCO2)CC3)n1` [Compound 204] were, in that order, 82 µg/mL (≈ 137 µM), 72 µg/mL (≈ 120 µM), 73 µg/mL (≈ 122 µM) and less than 24 % Qh.
As to `CCOc1c(C(=O)O)cnn1-c1cccc(-c2cccc(C)c2OCc2ccc3c(c2C)CCN(C[C@@H]2CCOC2)C3)n1` [Compound 189], the solubility at 24 h in series [1] (pH 2.2, aqueous buffer) amounted to 89 µg/mL (≈ 153 µM); in series [1] (pH 4.5, aqueous buffer), 73 µg/mL (≈ 125 µM); in series [1] (pH 6.8, aqueous buffer), 75 µg/mL (≈ 129 µM). Moreover, in series [2], the “HLM (% Qh)” value is 26 % Qh.
With `CCOc1c(C(=O)O)cnn1-c1cccc(-c2cccc(C)c2OCc2ccc3c(c2)CCCN(C2CCCOC2)C3)n1` (stereo not shown) [Compound 245], the solubility at 24 h in series [1] (pH 2.2, aqueous buffer) is 100 µg/mL (≈ 172 µM); in series [1] (pH 4.5, aqueous buffer), 79 µg/mL (≈ 136 µM); in series [1] (pH 6.8, aqueous buffer) it was 92 µg/mL (≈ 158 µM). Also, in series [2], the “HLM (% Qh)” value is reported as less than 24 % Qh.
The like results for `COc1c(C(=O)O)cnn1-c1cccc(-c2cccc(C)c2OCc2ccc3c(c2)C(C)(C)CN(C2CCCOC2)C3)n1` (stereo not shown) [Compound 218] were, in that order, 120 µg/mL (≈ 206 µM), 85 µg/mL (≈ 146 µM), 75 µg/mL (≈ 129 µM) and 89 % Qh.
For `CCOc1c(C(=O)O)cnn1-c1cccc(-c2cccc(C)c2OCc2ccc3c(c2OC)CCN(C2CCOCC2)C3)n1` [Compound 220], the solubility at 24 h in series [1] (pH 2.2, aqueous buffer) worked out at 100 µg/mL (≈ 167 µM); in series [1] (pH 4.5, aqueous buffer), 77 µg/mL (≈ 129 µM); in series [1] (pH 6.8, aqueous buffer), 86 µg/mL (≈ 144 µM). For the same compound, the “HLM (% Qh)” value in series [2] is less than 24 % Qh.
The like results for `COc1c(C(=O)O)cnn1-c1cccc(-c2cccc(C)c2OCc2cc(F)c3c(c2)CCN([C@@H]2CCOC2)C3)n1` [Compound 253] were, in that order, 100 µg/mL (≈ 179 µM), 75 µg/mL (≈ 134 µM), 81 µg/mL (≈ 145 µM) and less than 24 % Qh.
The matching figures for `COc1c(C(=O)O)cnn1-c1cccc(-c2cccc(C)c2OCc2ccc3c(c2C)CCN(C2COC2)C3)n1` [Compound 16]: 95 µg/mL (≈ 176 µM), 71 µg/mL (≈ 131 µM), 81 µg/mL (≈ 150 µM) and less than 24 % Qh.
The like results for `COc1c(C(=O)O)cnn1-c1cccc(-c2cccc(C)c2OCc2cc(F)c3c(c2)CCN([C@H]2CCOC2)C3)n1` [Compound 254] were, in that order, 100 µg/mL (≈ 179 µM), 64 µg/mL (≈ 115 µM), 80 µg/mL (≈ 143 µM) and less than 24 % Qh.
As to `CCOc1c(C(=O)O)cnn1-c1cccc(-c2cccc(C)c2OCc2ccc3c(c2C)CCN(C[C@H]2CCCO2)CC3)n1` [Compound 233], the solubility at 24 h in series [1] (pH 2.2, aqueous buffer) was found to be 98 µg/mL (≈ 164 µM); in series [1] (pH 4.5, aqueous buffer), 73 µg/mL (≈ 122 µM); in series [1] (pH 6.8, aqueous buffer), 86 µg/mL (≈ 144 µM). Besides, in series [2], the “HLM (% Qh)” value is 26 % Qh.
The like results for `CCOc1c(C(=O)O)cnn1-c1cccc(-c2cccc(C)c2OCc2cc(C)c3c(c2)CCN(C2CCOC2)C3)n1` (stereo not shown) [Compound 241] were, in that order, 100 µg/mL (≈ 176 µM), 81 µg/mL (≈ 142 µM), 84 µg/mL (≈ 148 µM) and less than 24 % Qh.
The matching figures for `CCOc1c(C(=O)O)cnn1-c1cccc(-c2cccc(C)c2OCc2cc(C)c3c(c2)CCN([C@@H]2CCCOC2)C3)n1` [Compound 195]: 110 µg/mL (≈ 189 µM), 83 µg/mL (≈ 142 µM), 80 µg/mL (≈ 137 µM) and less than 24 % Qh.
On to `COc1c(C(=O)O)cnn1-c1cccc(-c2cccc(C)c2OCc2ccc3c(c2)CCN(C[C@@H]2CCOC2)C3)n1` [Compound 188], for which the solubility at 24 h in series [1] (pH 2.2, aqueous buffer) was 89 µg/mL (≈ 160 µM); in series [1] (pH 4.5, aqueous buffer), 77 µg/mL (≈ 139 µM); in series [1] (pH 6.8, aqueous buffer) it was 73 µg/mL (≈ 132 µM). Also, in series [2], the “HLM (% Qh)” value is reported as less than 24 % Qh.
With `COc1c(C(=O)O)cnn1-c1cccc(-c2cccc(C)c2OCc2ccc3c(c2C)CCN(CC2CC(F)(F)C2)C3)n1` [Compound 29], the solubility at 24 h in series [1] (pH 2.2, aqueous buffer) stood at 110 µg/mL (≈ 187 µM); in series [1] (pH 4.5, aqueous buffer), 79 µg/mL (≈ 134 µM); in series [1] (pH 6.8, aqueous buffer), 78 µg/mL (≈ 133 µM). In addition, the “HLM (% Qh)” value in series [2] was 28 % Qh.
The matching figures for `COc1c(C(=O)O)cnn1-c1cccc(-c2cccc(C)c2OCc2ccc3c(c2C)CCN(C[C@@H]2CCCO2)CC3)n1` [Compound 223]: 81 µg/mL (≈ 139 µM), 68 µg/mL (≈ 117 µM), 69 µg/mL (≈ 118 µM) and less than 24 % Qh.
The matching figures for `COc1c(C(=O)O)cnn1-c1cccc(-c2cccc(C)c2OCc2ccc3c(c2)C(C)(C)CN(CC2COCCO2)C3)n1` (stereo not shown) [Compound 219]: 110 µg/mL (≈ 184 µM), 76 µg/mL (≈ 127 µM), 74 µg/mL (≈ 124 µM) and 89 % Qh.
